Structures can show the parent of a compound that is named as a salt.
What was measured:
Details in all cases: 72 h
Vero E6 [1] = experiment: cell viability relative to DMSO; higher = less toxic
Caco-2 [2] = experiment: as above
HepG2 [3] = experiment: as above
Calu-3 [4] = experiment: as above
U2OS [5] = experiment: as above
Vero E6 [6] = experiment: drug sensitivity score (DSS) for viability; higher = more toxic; extreme values may be limits of the assay
Caco-2 [7] = experiment: as above
HepG2 [8] = experiment: as above
Calu-3 [9] = experiment: as above
U2OS [10] = experiment: as above
Vero E6 [11] = experiment: relative viability EC50 (midpoint between 100% and the lowest measured viability); higher = less toxic
Caco-2 [12] = experiment: as above
HepG2 [13] = experiment: as above
Calu-3 [14] = experiment: as above
U2OS [15] = experiment: as above

Structure (SMILES) | cell viability (Vero E6 [1]; 1 nM) | cell viability (Vero E6 [1]; 10 nM) | cell viability (Vero E6 [1]; 100 nM) | cell viability (Vero E6 [1]; 1000 nM) | cell viability (Vero E6 [1]; 10000 nM) | cell viability (Caco-2 [2]; 1 nM) | cell viability (Caco-2 [2]; 10 nM) | cell viability (Caco-2 [2]; 100 nM) | cell viability (Caco-2 [2]; 1000 nM) | cell viability (Caco-2 [2]; 10000 nM) | cell viability (HepG2 [3]; 1 nM) | cell viability (HepG2 [3]; 10 nM) | cell viability (HepG2 [3]; 100 nM) | cell viability (HepG2 [3]; 1000 nM) | cell viability (HepG2 [3]; 10000 nM) | cell viability (Calu-3 [4]; 1 nM) | cell viability (Calu-3 [4]; 10 nM) | cell viability (Calu-3 [4]; 100 nM) | cell viability (Calu-3 [4]; 1000 nM) | cell viability (Calu-3 [4]; 10000 nM) | cell viability (U2OS [5]; 1 nM) | cell viability (U2OS [5]; 10 nM) | cell viability (U2OS [5]; 100 nM) | cell viability (U2OS [5]; 1000 nM) | cell viability (U2OS [5]; 10000 nM) | drug sensitivity score (Vero E6 [6]) | drug sensitivity score (Caco-2 [7]) | drug sensitivity score (HepG2 [8]) | drug sensitivity score (Calu-3 [9]) | drug sensitivity score (U2OS [10]) | relative viability EC50 (Vero E6 [11]) | relative viability EC50 (Caco-2 [12]) | relative viability EC50 (HepG2 [13]) | relative viability EC50 (Calu-3 [14]) | relative viability EC50 (U2OS [15])
C=C(C)[C@@H]1[C@H]2OC(=O)[C@@H]1[C@]1(O)C[C@H]3O[C@]34C(=O)O[C@H]2[C@]14C [picrotoxinin] | 97.2% | 95.6% | 97.5% | 102% | 99.5% | 108% | 102% | 99.2% | 103% | 96.1% | 109% | 108% | 106% | 97.4% | 98.4% | 104% | 107% | 92.8% | 94.5% | 92.6% | 101% | 98.4% | 98.3% | 98.4% | 97.2% | 0 | 0 | 0 | 0 | 0 | > 10 µM | > 10 µM | > 10 µM | > 10 µM | > 10 µM
CCCc1c(OCCCOc2ccc(OCC(=O)O)cc2)ccc(C(C)=O)c1O | 107% | 99.5% | 106% | 102% | 94.2% | 97.2% | 90.6% | 88.8% | 95.7% | 103% | 102% | 106% | 107% | 104% | 92.8% | 101% | 94.8% | 93.6% | 101% | 107% | 94.3% | 98.6% | 93.4% | 96.5% | 102% | 0 | 0 | 0 | 0 | 0 | > 10 µM | > 10 µM | > 10 µM | > 10 µM | > 10 µM
O=C(NC1CCC1)c1ccc(C#Cc2cccc(F)c2)nc1 | 98.6% | 98.5% | 96.8% | 90% | 92.1% | 92.4% | 102% | 96.5% | 98.9% | 95.4% | 91.7% | 93.9% | 89.4% | 85.8% | 93% | 96.1% | 98.6% | 98.8% | 103% | 90.7% | 104% | 102% | 96.3% | 100% | 91.6% | 0 | 0 | 0 | 0 | 0 | > 10 µM | > 10 µM | > 10 µM | > 10 µM | > 10 µM
O=C(O)C1=CCCN(CCON=C(c2ccccc2)c2ccccc2)C1 [NNC-711] | 90.4% | 103% | 101% | 97.4% | 114% | 102% | 95.6% | 104% | 96% | 101% | 93.4% | 100% | 99.1% | 109% | 101% | 108% | 100% | 102% | 101% | 98.9% | 98.7% | 95.5% | 103% | 101% | 98.5% | 0 | 0 | 0 | 0 | 0 | > 10 µM | > 10 µM | > 10 µM | > 10 µM | > 10 µM
CO/N=C(\C(=O)N[C@@H]1C(=O)N2C(C(=O)O)=C(CSC(=O)c3ccco3)CS[C@H]12)c1csc(N)n1 [CEFTIOFUR HYDROCHLORIDE] | 92.5% | 107% | 93.9% | 96.9% | 106% | 99.9% | 97% | 90.6% | 95.4% | 99.3% | 106% | 98.5% | 92.4% | 103% | 103% | 96.3% | 110% | 99.4% | 104% | 102% | 104% | 95.6% | 100% | 97.4% | 104% | 0 | 0 | 0 | 0 | 0 | > 10 µM | > 10 µM | > 10 µM | > 10 µM | > 10 µM

— the supplement of paper PMC13380429
